Numbering of substitutions follows the chain as printed. pEC50: −log10 of the molar value.
Columns and labels:
Opn5L1NC [1] = target: T1, Opn5L1NC (Gallus gallus, UniProt B3XZF4, C170T, form not given); assay: absorption spectrum of purified pigment and HPLC of extracted retinal; type: binding; settings: covalent (retinylidene Schiff base); retinal 5 μM added to the cell culture; pH 7.0, 10 °C
T1 construct: gene cOpn5L1; HEK293T, purified in dodecyl maltoside
T1 sequence (B3XZF4 20-310 C170T limits assumed): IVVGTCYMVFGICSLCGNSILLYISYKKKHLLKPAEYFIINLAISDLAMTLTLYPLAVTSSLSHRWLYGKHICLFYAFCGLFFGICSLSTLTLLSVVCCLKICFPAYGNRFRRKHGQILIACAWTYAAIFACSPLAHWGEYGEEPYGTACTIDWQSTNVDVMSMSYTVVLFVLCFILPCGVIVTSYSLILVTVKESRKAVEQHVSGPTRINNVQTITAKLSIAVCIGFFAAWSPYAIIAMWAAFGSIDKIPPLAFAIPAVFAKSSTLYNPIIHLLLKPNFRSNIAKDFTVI

[2] = target: T2, Opn5L1 bearing native N- and C- termini (Gallus gallus, UniProt B3XZF4, C170T); assay: as above; type: binding; settings: covalent (retinylidene Schiff base)
T2 construct: gene cOpn5L1; HEK293T, purified
T2 sequence (B3XZF4 1-441 C170T): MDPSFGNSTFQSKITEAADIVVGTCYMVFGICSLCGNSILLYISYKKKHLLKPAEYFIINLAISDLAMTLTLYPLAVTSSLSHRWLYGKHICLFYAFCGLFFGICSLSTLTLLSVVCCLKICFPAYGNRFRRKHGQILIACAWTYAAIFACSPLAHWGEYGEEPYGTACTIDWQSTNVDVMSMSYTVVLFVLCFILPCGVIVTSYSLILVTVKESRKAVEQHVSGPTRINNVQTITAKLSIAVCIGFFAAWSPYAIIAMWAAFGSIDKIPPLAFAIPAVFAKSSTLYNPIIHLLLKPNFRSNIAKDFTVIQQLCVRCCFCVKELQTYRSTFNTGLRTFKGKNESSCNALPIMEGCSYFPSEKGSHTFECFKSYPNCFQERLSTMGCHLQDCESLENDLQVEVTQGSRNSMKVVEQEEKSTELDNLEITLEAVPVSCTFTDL

[3] = target: T3, Opn5L1 bearing native N- and C- termini (Gallus gallus, UniProt B3XZF4); assay: as above; type: binding; settings: covalent (retinylidene Schiff base)
T3 construct: gene cOpn5L1; HEK293T, purified
T3 sequence (B3XZF4 1-441): T2 sequence (B3XZF4 1-441 C170T) with T170C

Opn5L1NC [4] = target: T4, Opn5L1NC (Gallus gallus, UniProt B3XZF4); assay: as above; type: binding; settings: covalent (retinylidene Schiff base); 10 μM retinal, 4 °C, 8 h, dark; pH 7.0
T4 construct: gene cOpn5L1; HEK293T, purified in dodecyl maltoside
T4 sequence (B3XZF4 20-310 limits assumed): T1 sequence (B3XZF4 20-310 C170T limits assumed) with T151C

Opn5L1NC [5] = target: T5, Opn5L1NC (Gallus gallus, UniProt B3XZF4, E159K/Q174K, form not given); assay: LC-MS of tryptic peptide with retinal oxime at Cys188; type: binding; settings: covalent (light-induced thio-adduct at Cys188); hydroxylamine, irradiation >500 nm
T5 construct: gene cOpn5L1; HEK293T, purified in dodecyl maltoside
T5 sequence (B3XZF4 20-310 E159K/Q174K limits assumed): T1 sequence (B3XZF4 20-310 C170T limits assumed) with E140K, T151C, Q155K

Opn5L1N = target: T6, Opn5L1N (Gallus gallus, UniProt B3XZF4); assay: […]GTPgammaS filter binding assay of Gi activation; type: biochemical; settings: agonist; membrane fraction, 0.6 μM Gi, dark, pH 7.0, 25 °C; covalent (retinylidene Schiff base)
T6 construct: gene cOpn5L1; HEK293T membranes
T6 sequence (B3XZF4 20-441 limits assumed): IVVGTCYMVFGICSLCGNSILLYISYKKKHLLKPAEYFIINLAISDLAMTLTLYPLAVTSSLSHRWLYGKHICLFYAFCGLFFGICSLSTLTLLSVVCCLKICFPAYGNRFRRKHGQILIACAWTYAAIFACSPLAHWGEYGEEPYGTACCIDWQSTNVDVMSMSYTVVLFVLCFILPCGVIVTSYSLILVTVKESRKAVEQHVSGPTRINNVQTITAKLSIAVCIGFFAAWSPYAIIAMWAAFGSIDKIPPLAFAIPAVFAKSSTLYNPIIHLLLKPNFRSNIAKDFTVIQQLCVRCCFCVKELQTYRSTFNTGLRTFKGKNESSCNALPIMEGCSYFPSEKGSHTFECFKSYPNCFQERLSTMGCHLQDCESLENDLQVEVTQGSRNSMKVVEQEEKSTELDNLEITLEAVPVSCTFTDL

With `CC1=C(/C=C/C(C)=C/C=C/C(C)=C/C=O)C(C)(C)CCC1` [all-trans-retinal] the “absorption spectrum of purified pigment and HPLC of extracted retinal” value (“absorption spectrum” for short) (Opn5L1NC [1]) was “the C188T mutant of Opn5L1NC showed an absorption maximum similar to that of WT”, the “absorption spectrum” value [2] was “verified the function of Cys188 in the mutant Opn5L1 bearing native N- and C- termini” and the “absorption spectrum” value [3] was “Opn5L1 bearing native N- and C- termini showed molecular characteristics indistinguishable”. For the same compound, the “absorption spectrum” value (Opn5L1NC [4]) was “we concluded that Opn5L1NC directly incorporates all-trans-retinal and not 11-cis-retinal”, the “LC-MS of tryptic peptide with retinal oxime at Cys188” value (Opn5L1NC [5]) was “Light increased the amount of peptide with retinal oxime at the second cysteine” and the pEC50 (Opn5L1N) was 6.21.
